Several values for one entry are separate records, joined by “and”; a condition that tells them apart may be missing. Equal values may be shown once.
System: Swiss mice, Sarcoma 180 sc, mean tumor weight T/C
Test: NCI In Vivo Anticancer Drug Screen. Data for tumor model Sarcoma 180 (subcutaneous) in Swiss mice
Conditions: endpoint: mean tumor weight, higher = larger tumour
Procedure, shortened: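 Readout is the ratio of treated-group measurement to vehicle-control measurement (T/C), based on survival or tumor size in mice carrying transplanted tumors.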

[1] = dose: 60.0 mg/kg/injection, schedule: Q01DX007 (ip), vehicle: carboxymethylcellulose (CMC)
[2] = dose: 37.5 mg/kg/injection, schedule: Q01DX007 (ip), vehicle: carboxymethylcellulose (CMC)
[3] = dose: 75.0 mg/kg/injection, schedule: Q01DX007 (ip), vehicle: carboxymethylcellulose (CMC)

SMILES: CC1=C2C(=C[C@@](C)(CO)[C@@H]2O)C(=O)[C@](C)(O)C12CC2
- T/C (dose: 0.8 mg/kg/injection, schedule: Q01DX007 (ip), vehicle: saline): 67 % of control and 78 % of control
- T/C (dose: 1.6 mg/kg/injection, schedule: Q01DX007 (ip), vehicle: saline): 45 % of control

SMILES: C=CC(CN1CC1)OC(C)=O (stereo not given)
- T/C (dose: 0.88 mg/kg/injection, schedule: Q01DX007 (ip), vehicle: carboxymethylcellulose (CMC)): 94 % of control
- T/C (dose: 1.25 mg/kg/injection, schedule: Q01DX007 (ip), vehicle: carboxymethylcellulose (CMC)): 68 % of control
- T/C (dose: 1.75 mg/kg/injection, schedule: Q01DX007 (ip), vehicle: carboxymethylcellulose (CMC)): 97 % of control
- T/C (dose: 2.3 mg/kg/injection, schedule: Q01DX007 (ip), vehicle: carboxymethylcellulose (CMC)): 58 % of control
- T/C (dose: 3.5 mg/kg/injection, schedule: Q01DX007 (ip), vehicle: carboxymethylcellulose (CMC)): 56 % of control
- T/C (dose: 7.0 mg/kg/injection, schedule: Q01DX007 (ip), vehicle: carboxymethylcellulose (CMC)): 50 % of control

SMILES: CCCCCCCCCCCCCCCCNc1cccc2ccccc12
- T/C (dose: 111.0 mg/kg/injection, schedule: Q#A X014 (ip), vehicle: methylcellulose (MC)): 64 % of control and 82 % of control
- T/C (dose: 166.5 mg/kg/injection, schedule: Q#A X014 (ip), vehicle: methylcellulose (MC)): 49 % of control and 66 % of control
- T/C (dose: 250.0 mg/kg/injection, schedule: Q#A X014 (ip), vehicle: methylcellulose (MC)): 41 % of control

SMILES: Clc1ccccc1/C=C/C=C1c2ccccc2-c2ccccc21
- T/C (dose: 222.0 mg/kg/injection, schedule: Q01DX007 (ip), vehicle: other): 72 % of control
- T/C (dose: 222.0 mg/kg/injection, schedule: Q01DX007 (ip), vehicle: saline): 83 % of control
- T/C (dose: 333.0 mg/kg/injection, schedule: Q01DX007 (ip), vehicle: other): 78 % of control
- T/C (dose: 333.0 mg/kg/injection, schedule: Q01DX007 (ip), vehicle: saline): 95 % of control
- T/C (dose: 492.0 mg/kg/injection, schedule: Q01DX007 (ip), vehicle: saline): 56 % of control
- T/C (dose: 500.0 mg/kg/injection, schedule: Q01DX007 (ip), vehicle: other): 50 % of control
- T/C (dose: 500.0 mg/kg/injection, schedule: Q01DX007 (ip), vehicle: saline): 79 % of control
- T/C (dose: 750.0 mg/kg/injection, schedule: Q01DX007 (ip), vehicle: other): 49 % of control
- T/C (dose: 1119.0 mg/kg/injection, schedule: Q01DX007 (ip), vehicle: saline): 58 % of control
- T/C (dose: 1679.0 mg/kg/injection, schedule: Q01DX007 (ip), vehicle: saline): 54 % of control

SMILES: COc1ccc2c(c1O)-c1c(OC)c(OC)cc3c1[C@H](C2)[N+](C)(C)CC3
- T/C (dose: 2.5 mg/kg/injection, schedule: Q01DX007 (ip), vehicle: saline): 108 % of control
- T/C (dose: 5.0 mg/kg/injection, schedule: Q01DX007 (ip), vehicle: saline): 100 % of control

SMILES: COC(=O)C1(N)CCCC1
- T/C [1]: 59 % of control
- T/C (dose: 90.0 mg/kg/injection, schedule: Q01DX007 (ip), vehicle: carboxymethylcellulose (CMC)): 42 % of control
- T/C (dose: 135.0 mg/kg/injection, schedule: Q01DX007 (ip), vehicle: carboxymethylcellulose (CMC)): 33 % of control
- T/C (dose: 202.0 mg/kg/injection, schedule: Q01DX007 (ip), vehicle: carboxymethylcellulose (CMC)): 20 % of control

SMILES: C[C@H]1C[C@@H]2[C@H]([C@@H](O)C[C@@]3(C)[C@H]2CC[C@]3(O)C(=O)CO)[C@@]2(C)C=CC(=O)C=C12
- T/C (dose: 6.25 mg/kg/injection, schedule: Q#A X014 (sc), vehicle: steriod suspending solution): 82 % of control
- T/C (dose: 12.5 mg/kg/injection, schedule: Q01DX007 (sc), vehicle: water): 45 % of control
- T/C (dose: 12.5 mg/kg/injection, schedule: Q#A X014 (sc), vehicle: steriod suspending solution): 40 % of control
- T/C (dose: 25.0 mg/kg/injection, schedule: Q01DX007 (sc), vehicle: water): 41 % of control
- T/C (dose: 25.0 mg/kg/injection, schedule: Q#A X014 (sc), vehicle: steriod suspending solution): 33 % of control
- T/C (dose: 50.0 mg/kg/injection, schedule: Q01DX007 (sc), vehicle: water): 39 % of control
- T/C (dose: 50.0 mg/kg/injection, schedule: Q#A X014 (sc), vehicle: steriod suspending solution): 27 % of control
- T/C (dose: 100.0 mg/kg/injection, schedule: Q01DX007 (sc), vehicle: water): 18 % of control
- T/C (dose: 100.0 mg/kg/injection, schedule: Q#A X014 (sc), vehicle: steriod suspending solution): 17 % of control

SMILES: CCOC(=O)Nc1ccc2c(c1)/C(=N\NC(N)=S)c1ccccc1-2
- T/C (dose: 5.0 mg/kg/injection, schedule: Q01DX007 (ip), vehicle: carboxymethylcellulose (CMC)): 86 % of control
- T/C (dose: 15.0 mg/kg/injection, schedule: Q01DX007 (ip), vehicle: carboxymethylcellulose (CMC)): 44 % of control
- T/C (dose: 30.0 mg/kg/injection, schedule: Q01DX007 (ip), vehicle: carboxymethylcellulose (CMC)): 55 % of control
- T/C (dose: 49.0 mg/kg/injection, schedule: Q01DX007 (ip), vehicle: carboxymethylcellulose (CMC)): 85 % of control
- T/C [1]: 63 % of control
- T/C (dose: 73.0 mg/kg/injection, schedule: Q01DX007 (ip), vehicle: carboxymethylcellulose (CMC)): 63 % of control
- T/C (dose: 110.0 mg/kg/injection, schedule: Q01DX007 (ip), vehicle: carboxymethylcellulose (CMC)): 112 % of control

SMILES: CCCCN(C)N=Nc1ccc(OCC(=O)OCC)cc1
- T/C (dose: 7.0 mg/kg/injection, schedule: Q01DX007 (ip), vehicle: saline): 111 % of control
- T/C (dose: 10.0 mg/kg/injection, schedule: Q01DX007 (ip), vehicle: saline): 93 % of control
- T/C (dose: 15.0 mg/kg/injection, schedule: Q01DX007 (ip), vehicle: saline): 111 % of control
- T/C (dose: 23.0 mg/kg/injection, schedule: Q01DX007 (ip), vehicle: saline): 95 % of control

SMILES: CC(C)(c1ccccc1)c1ccc(O)cc1
- T/C [2]: 64 % of control
- T/C [3]: 73 % of control
- T/C (dose: 150.0 mg/kg/injection, schedule: Q01DX007 (ip), vehicle: carboxymethylcellulose (CMC)): 44 % of control

SMILES: COc1ccc(CSc2ncnc3nc[nH]c23)cc1
- T/C (dose: 55.5 mg/kg/injection, schedule: Q#A X014 (ip), vehicle: methylcellulose (MC)): 48 % of control
- T/C (dose: 83.0 mg/kg/injection, schedule: Q#A X014 (ip), vehicle: methylcellulose (MC)): 29 % of control
- T/C (dose: 125.0 mg/kg/injection, schedule: Q#A X014 (ip), vehicle: methylcellulose (MC)): 14 % of control
- T/C (dose: 187.5 mg/kg/injection, schedule: Q#A X014 (ip), vehicle: methylcellulose (MC)): 10 % of control

SMILES: COC(=O)C1=CO[C@@H](C)[C@@H]2Cn3ccc4c5ccccc5nc-4c3C[C@H]12
- T/C (dose: 10.0 mg/kg/injection, schedule: Q01DX007 (ip), vehicle: other): 113 % of control
- T/C (dose: 50.0 mg/kg/injection, schedule: Q01DX007 (ip), vehicle: other): 74 % of control

SMILES: COc1cccc2c1-c1ccccc1C2
- T/C (dose: 62.5 mg/kg/injection, schedule: Q01DX007 (ip), vehicle: carboxymethylcellulose (CMC)): 151 % of control
- T/C (dose: 250.0 mg/kg/injection, schedule: Q01DX007 (ip), vehicle: carboxymethylcellulose (CMC)): 114 % of control

SMILES: NNc1nncc2ccccc12
- T/C [2]: 116 % of control
- T/C [3]: 100 % of control

— PubChem BioAssay AID342 (DTP/NCI, 2004)
